Reference: ChEMBL document CHEMBL1201862, “PubChem BioAssay data set” (2004)
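The compound was tested at five concentrations on cells cultured in 96-well plates, with a 48-hour exposure period. Here, GI50 denotes the concentration required for 50% inhibition of growth.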 Active and inactive are the calls of the source. No stated cut-off is given here; in the data, active = GI50 up to about 1.1 µM and inactive = higher.

Key:
Assay in all cases: NCI-60 cell line screen, 48 h
OVCAR-3 = system: OVCAR-3
SK-MEL-2 = system: SK-MEL-2
NCI-H460 = system: NCI-H460
EKVX = system: EKVX
HL-60 = system: HL-60
OVCAR-5 = system: OVCAR-5
SR = system: SR
M14 = system: M14
NCI-H226 = system: NCI-H226
PC-3 = system: PC-3
KM12 = system: KM12
SK-MEL-5 = system: SK-MEL-5
Malme-3M = system: Malme-3M
OVCAR-4 = system: OVCAR-4
SW-620 = system: SW-620
HCC 2998 = system: HCC 2998
COLO 205 = system: COLO 205
DU-145 = system: DU-145
MCF7 = system: MCF7

| Structure (SMILES) | GI50 (OVCAR-3) | GI50 (SK-MEL-2) | GI50 (NCI-H460) | GI50 (EKVX) | GI50 (HL-60) | GI50 (OVCAR-5) | GI50 (SR) | GI50 (M14) | GI50 (NCI-H226) | GI50 (PC-3) | GI50 (KM12) | GI50 (SK-MEL-5) | GI50 (Malme-3M) | GI50 (OVCAR-4) | GI50 (SW-620) | GI50 (HCC 2998) | GI50 (COLO 205) | GI50 (DU-145) | GI50 (MCF7) |
| --- | --- | --- | --- | --- | --- | --- | --- | --- | --- | --- | --- | --- | --- | --- | --- | --- | --- | --- | --- |
| NC(Cc1ccccc1)P(=O)(O)O (stereo not given) | > 100 µM (inactive) | > 100 µM (inactive) | > 100 µM (inactive) | > 100 µM (inactive) | > 100 µM (inactive) | > 100 µM (inactive) | > 100 µM (inactive) | > 100 µM (inactive) | > 100 µM (inactive) | > 100 µM (inactive) | > 100 µM (inactive) | > 100 µM (inactive) | > 100 µM (inactive) | > 100 µM (inactive) | > 100 µM (inactive) |  |  |  |  |
| N#Cc1c(-c2ccco2)cc(-c2ccccc2)nc1O | > 100 µM (inactive) |  | > 100 µM (inactive) | > 100 µM (inactive) | > 100 µM (inactive) | > 100 µM (inactive) | > 100 µM (inactive) | > 100 µM (inactive) | > 100 µM (inactive) |  | > 100 µM (inactive) | > 100 µM (inactive) | > 100 µM (inactive) | 63.4 µM (inactive) | > 100 µM (inactive) | > 100 µM (inactive) | > 100 µM (inactive) |  |  |
| CN1c2ccccc2C(=O)NC12CCN(Cc1ccccc1)CC2 |  |  | 39.4 µM (inactive) | 42.2 µM (inactive) | 30.5 µM (inactive) | > 100 µM (inactive) | 33.3 µM (inactive) | 33.4 µM (inactive) | 27.5 µM (inactive) |  | 46 µM (inactive) | 54.8 µM (inactive) | 87.1 µM (inactive) | 80.2 µM (inactive) | 55.3 µM (inactive) | 83.6 µM (inactive) | 35.4 µM (inactive) | 71.6 µM (inactive) | 46 µM (inactive) |
| CN/N=C(\C)C(CN1CCCCC1)C(C1=C(O)c2ccccc2OC1)c1ccccc1 (stereo not given) | > 100 µM (inactive) | > 100 µM (inactive) | > 100 µM (inactive) | > 100 µM (inactive) | 35.2 µM (inactive) | > 100 µM (inactive) | 51.3 µM (inactive) | > 100 µM (inactive) | > 100 µM (inactive) |  | > 100 µM (inactive) | > 100 µM (inactive) | 91.8 µM (inactive) | > 100 µM (inactive) | > 100 µM (inactive) | > 100 µM (inactive) | 38.4 µM (inactive) |  |  |
| COP(=O)(OC)OCN(C)CC/C=C(\C)CC/C=C(\C)CCC=C(C)C | 15.3 µM (inactive) | 14.9 µM (inactive) | 11.7 µM (inactive) | 29.2 µM (inactive) |  | 15.5 µM (inactive) |  | 14.5 µM (inactive) | 15.4 µM (inactive) | 7.57 µM (inactive) | 15.2 µM (inactive) | 11.8 µM (inactive) | 14.9 µM (inactive) | 31.3 µM (inactive) | 15.6 µM (inactive) | 11.6 µM (inactive) | 16.9 µM (inactive) |  | 15.2 µM (inactive) |
| CNC(=O)CN(CC(=O)NC)C(=O)NC | > 100 µM (inactive) | > 100 µM (inactive) |  | > 100 µM (inactive) | > 100 µM (inactive) | > 100 µM (inactive) | > 100 µM (inactive) | > 100 µM (inactive) | > 100 µM (inactive) |  | > 100 µM (inactive) | > 100 µM (inactive) | > 100 µM (inactive) | > 100 µM (inactive) | > 100 µM (inactive) | > 100 µM (inactive) | > 100 µM (inactive) |  |  |
| NCCCCCNOCCCN | > 100 µM (inactive) | > 100 µM (inactive) | > 100 µM (inactive) | > 100 µM (inactive) | > 100 µM (inactive) | > 100 µM (inactive) | > 100 µM (inactive) | > 100 µM (inactive) | > 100 µM (inactive) | > 100 µM (inactive) | > 100 µM (inactive) | > 100 µM (inactive) | > 100 µM (inactive) | > 100 µM (inactive) | > 100 µM (inactive) | > 100 µM (inactive) | > 100 µM (inactive) | > 100 µM (inactive) |  |
| N/N=C1\C(=O)N(CCc2ccccc2)C(=O)C1C(=O)NCCc1ccccc1 (stereo not given) | > 100 µM (inactive) | > 100 µM (inactive) |  | > 100 µM (inactive) | > 100 µM (inactive) |  | > 100 µM (inactive) | > 100 µM (inactive) | > 100 µM (inactive) |  | > 100 µM (inactive) |  | > 100 µM (inactive) |  | > 100 µM (inactive) |  |  |  |  |
| CC(C)OP(=O)(NC(=S)c1ccccc1)OC(C)C | > 100 µM (inactive) | > 100 µM (inactive) | 23.4 µM (inactive) | > 100 µM (inactive) |  | > 100 µM (inactive) |  | > 100 µM (inactive) | > 100 µM (inactive) |  | > 100 µM (inactive) | 34.5 µM (inactive) | > 100 µM (inactive) | > 100 µM (inactive) | > 100 µM (inactive) | > 100 µM (inactive) | > 100 µM (inactive) |  |  |
| CC1(C)C(CCO)CC1n1cc(I)c(=O)[nH]c1=O (stereo not given) | > 100 µM (inactive) | > 100 µM (inactive) |  | > 100 µM (inactive) |  | > 100 µM (inactive) |  | > 100 µM (inactive) | > 100 µM (inactive) | > 100 µM (inactive) | > 100 µM (inactive) | > 100 µM (inactive) |  | > 100 µM (inactive) | > 100 µM (inactive) | > 100 µM (inactive) | > 100 µM (inactive) | > 100 µM (inactive) | > 100 µM (inactive) |
| O=S(=O)([C-]([I+]c1ccccc1)S(=O)(=O)C(F)(F)C(F)(F)C(F)(F)C(F)(F)F)C(F)(F)C(F)(F)C(F)(F)C(F)(F)F | 15.9 µM (inactive) |  | 17.7 µM (inactive) | 13.5 µM (inactive) | 4.67 µM (inactive) | 17.2 µM (inactive) | 4.14 µM (inactive) | 13.6 µM (inactive) | 3.97 µM (inactive) | 17.2 µM (inactive) | 21.5 µM (inactive) | 14.4 µM (inactive) | 11 µM (inactive) | 2.95 µM (inactive) | 5.69 µM (inactive) | 20 µM (inactive) | 6.64 µM (inactive) |  | 6.05 µM (inactive) |
| O=S(=O)(c1cc(Cl)ccc1Cl)N1CCN(S(=O)(=O)c2cc(Cl)ccc2Cl)CC1 | > 100 µM (inactive) | 0.403 µM (active) | > 100 µM (inactive) |  |  | 16.3 µM (inactive) |  | > 100 µM (inactive) | > 100 µM (inactive) | > 100 µM (inactive) | > 100 µM (inactive) | > 100 µM (inactive) | > 100 µM (inactive) |  | > 100 µM (inactive) | > 100 µM (inactive) |  | 16.1 µM (inactive) | > 100 µM (inactive) |
| N#C/N=C(/NCCc1c[nH]c2ccccc12)Oc1ccccc1 | > 100 µM (inactive) |  | 37.1 µM (inactive) | 26.7 µM (inactive) | 21.6 µM (inactive) | > 100 µM (inactive) | 35 µM (inactive) | 78.5 µM (inactive) | 77.3 µM (inactive) |  | 40.8 µM (inactive) | 35.6 µM (inactive) |  | 73.3 µM (inactive) | > 100 µM (inactive) | 44 µM (inactive) | 59 µM (inactive) |  |  |
| CC1CC(N2CCOCC2)=Nc2ccccc2N1Cc1ccccc1 (stereo not given) | 43.9 µM (inactive) | > 100 µM (inactive) | > 100 µM (inactive) | 90.6 µM (inactive) | 29.8 µM (inactive) | > 100 µM (inactive) |  | > 100 µM (inactive) | 51.2 µM (inactive) | 50.6 µM (inactive) | 68.7 µM (inactive) | 36.3 µM (inactive) | 19 µM (inactive) | 56.2 µM (inactive) | > 100 µM (inactive) |  | 30.9 µM (inactive) | > 100 µM (inactive) |  |
| O=C(C[N+]12CN3CN(CN(C3)C1)C2)c1ccc(-c2ccccc2)cc1 | 29.3 µM (inactive) | 18.3 µM (inactive) | 13.7 µM (inactive) | 19.8 µM (inactive) |  | 18.6 µM (inactive) | 3.2 µM (inactive) | 21.7 µM (inactive) | 21.2 µM (inactive) | 16 µM (inactive) | 32 µM (inactive) | 16.4 µM (inactive) | 21.3 µM (inactive) | 51.4 µM (inactive) | 8.67 µM (inactive) | 15.4 µM (inactive) |  | 17.6 µM (inactive) |  |
| CO[C@]12C#CC=CC#C[C@@H](O)[C@]3(CCC1)O[C@@]23c1cccc(O)c1 | > 100 µM (inactive) | > 100 µM (inactive) | > 100 µM (inactive) |  |  | > 100 µM (inactive) |  | > 100 µM (inactive) | > 100 µM (inactive) | > 100 µM (inactive) | > 100 µM (inactive) |  |  | > 100 µM (inactive) | > 100 µM (inactive) | > 100 µM (inactive) | > 100 µM (inactive) | > 100 µM (inactive) | > 100 µM (inactive) |
| CC(C)c1cccc(C(C)C)c1NC(=S)NN=C1C=C(C(C)(C)C)C(=O)C(C(C)(C)C)=C1 | 22.5 µM (inactive) | 20.2 µM (inactive) | 25.6 µM (inactive) | 33.5 µM (inactive) | 26.1 µM (inactive) |  | 35.3 µM (inactive) | 41.6 µM (inactive) | 10 µM (inactive) |  |  | 21 µM (inactive) | 27.3 µM (inactive) | 17.3 µM (inactive) | 28.5 µM (inactive) | 23.5 µM (inactive) | 20.1 µM (inactive) |  |  |
| COc1cc2c(cc1OC)-c1cc3cc(OC)c(OC)cc3n1CC2 | > 100 µM (inactive) | > 100 µM (inactive) | 36 µM (inactive) | > 100 µM (inactive) | > 100 µM (inactive) | > 100 µM (inactive) | > 100 µM (inactive) | 23.4 µM (inactive) | 33.7 µM (inactive) |  | 38.5 µM (inactive) |  | 23.8 µM (inactive) | 22.7 µM (inactive) | 33.9 µM (inactive) | 61 µM (inactive) | 32.4 µM (inactive) |  |  |
